Data as given in patent US11213498B2, “Aqueous formulation comprising paracetamol and ibuprofen” (Hyloris Pharmaceuticals SA, priority 2014, dated 2022).
Read-outs that look alike come from different tables or passages of the source. One block for each molecule: values may come before it.

Tests used:
[1] = cited from earlier work
[2] = Amount of paracetamol at various points in time and different pH; format: physicochemical; conditions: pH range 6.3-7.3, various points in time
Text: The amount of paracetamol was studied at varies points in time and for different pH's.

[3] = Dissolution of sodium ibuprofen 2H2O alone in water at gradually decreased pH (precipitation observed); format: physicochemical; conditions: for Dissolved: 3.85 mg/ml alone in water; for Dissolution: in water after 1 month storage at 25° C.
Protocol: Precipitation of ibuprofen is observed once pH is at 5.75. The Ibuprofen solutions were stored for 1 month at 25° C. They were again observed for signs of precipitation.

[4] = Dissolution of sodium ibuprofen 2H2O in the formulation Paracetamol - Ibuprofen at varying pH; format: physicochemical
Protocol: In a further experiment the dissolution of sodium ibuprofen 2H2O was studied in combination with paracetamol at a concentration of 10 mg paracetamol per liter.

[5] = as above; format: physicochemical; conditions: in the formulation 3 mg/ml Paracetamol 10 mg/ml Ibuprofen

SMILES: CC(C)Cc1ccc(C(C)C(=O)O)cc1 (stereo not drawn) [Ibuprofen, 2-(p-isobutylphenyl)propionic acid]
- Precipitation of ibuprofen ([1]; at pH 5.5 to 6.0): precipitates
- Solubility in water [1]: very poorly soluble

- Degradation of paracetamol [2]: minimal degradation
SMILES: CC(=O)Nc1ccc(O)cc1 [paracetamol, N-(4-hydroxyphenyl)acetamide]
- pH at which rate of degradation of paracetamol is minimal ([1]; aqueous solution (Koshy et al., 1961)): ~6
- Degradation of paracetamol ([1]; at pH 7): significant

- Dissolved ([3]; pH 3): No
- Dissolved ([3]; pH 4): No
- Dissolved ([3]; pH 5): No
- Dissolved ([3]; pH 5.5): No
- Dissolved ([3]; pH 5.8): Yes
- Dissolved ([3]; pH 6): Yes
- Dissolved ([3]; pH 6.2): Yes
- Dissolved ([3]; pH 6.4): Yes
- Dissolved ([3]; pH 6.6): Yes
- Dissolved ([3]; pH 6.8): Yes
- Dissolved ([3]; pH 7): Yes
- Dissolved ([3]; pH 7.5): Yes
- pH at which precipitation of ibuprofen is observed ([3]; 3.85 mg/ml in water, pH gradually decreased from 8.80): 5.75
- Dissolution ([3]; pH 5.8): No
- Dissolution ([3]; pH 6): No
- Dissolution ([3]; pH 6.2): Yes
- Dissolution ([3]; pH 6.4): Yes
- Dissolution ([3]; pH 6.6): Yes
- Dissolution ([3]; pH 6.8): Yes
- Dissolution ([3]; pH 7): Yes
- Dissolution ([3]; pH 7.5): Yes
- Precipitation ([3]; solution at pH 6, stored for 1 month at 25° C.): showed precipitation
- Precipitation ([3]; solution at pH 6.2, stored for 1 month at 25° C.): precipitation was absent
- Dissolution ([4]; 1 month storage at 25° C., pH 6.2): No
- Dissolution ([4]; 1 month storage at 25° C., pH 6.3): Yes
- Dissolution ([4]; 1 month storage at 25° C., pH 6.4): Yes
- Dissolution ([4]; 1 month storage at 25° C., pH 6.6): Yes
- Dissolution ([4]; 1 month storage at 25° C., pH 7): Yes
- Dissolution ([4]; 6 months, 25° C., pH 6.3): Yes
- Dissolution ([4]; 6 months, 25° C., pH 6.4): Yes
- Dissolution ([4]; 6 months, 25° C., pH 6.6): Yes
- Dissolution ([4]; 6 months, 25° C., pH 7): Yes
- Dissolved ([5]; pH 6.2): Yes
- Dissolved ([5]; pH 6.3): Yes
- Dissolved ([5]; pH 6.4): Yes
- Dissolved ([5]; pH 6.6): Yes
- Dissolved ([5]; pH 7): Yes
SMILES: CC(C)Cc1ccc(C(C)C(=O)O)cc1 (stereo not drawn) [sodium ibuprofen 2H2O]
